In patent US20120121591A1 (priority 2009, published 2012) one finds IC50 data, which are given here for three molecules.

Assay type in all cases: cell-based
The target of experiment [1] is hKv1.3 (Homo sapiens, UniProt P22001). The experiment in a line: cell-based. The conditions noted are these: Kv1.3 (IWQ) IC50 (nM, Avg).
The subject of experiment [2] is IFN-g secretion from T cells in human whole blood. The conditions noted are these: read-out: WB (IFNg) IC50 (nM, Avg).
Experiment [3] has as its system IL-2 secretion from T cells in human whole blood. The conditions noted are these: read-out: WB (IL-2) IC50 (nM, Avg).

Chain of hKv1.3 (P22001 whole entry): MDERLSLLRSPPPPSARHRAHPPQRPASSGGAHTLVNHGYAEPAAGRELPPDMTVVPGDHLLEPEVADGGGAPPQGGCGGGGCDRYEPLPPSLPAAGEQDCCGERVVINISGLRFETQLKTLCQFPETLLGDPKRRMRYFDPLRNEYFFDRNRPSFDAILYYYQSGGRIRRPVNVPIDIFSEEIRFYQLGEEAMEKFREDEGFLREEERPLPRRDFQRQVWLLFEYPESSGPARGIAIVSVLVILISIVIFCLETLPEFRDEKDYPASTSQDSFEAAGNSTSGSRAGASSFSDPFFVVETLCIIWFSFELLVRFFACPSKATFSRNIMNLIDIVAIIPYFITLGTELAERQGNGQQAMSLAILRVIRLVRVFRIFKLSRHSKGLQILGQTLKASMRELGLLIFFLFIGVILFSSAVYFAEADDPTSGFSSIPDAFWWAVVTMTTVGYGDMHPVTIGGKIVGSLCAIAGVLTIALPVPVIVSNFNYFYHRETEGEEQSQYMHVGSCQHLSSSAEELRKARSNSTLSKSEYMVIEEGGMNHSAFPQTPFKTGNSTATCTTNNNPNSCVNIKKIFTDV

Consider `CC[C@H](C)[C@@H]1NC(=O)[C@@H](NC(=O)[C@H](CO)NC(=O)[C@@H](N)CCCNC(=N)N)CSSC[C@@H](C(N)=O)NC(=O)[C@H]([C@@H](C)O)NC(=O)CNC(=O)[C@@H]2CSSC[C@@H]3NC(=O)[C@H](CCCCN)NC(=O)[C@H](Cc4ccccc4)NC(=O)[C@H](C)NC(=O)[C@H]([C@@H](C)O)NC(=O)[C@H](CSSC[C@H](NC(=O)[C@H](Cc4ccc5ccccc5c4)NC(=O)[C@H](CO)NC(=O)[C@H](CC(C)C)NC(=O)[C@H](CCCNC(=N)N)NC(=O)[C@H](Cc4ccc(O)cc4)NC(=O)[C@H](CCCCN)NC(=O)[C@H](CCSC)NC(=O)[C@H](CO)NC(=O)[C@H](Cc4c[nH]cn4)NC(=O)[C@H](CCCCN)NC3=O)C(=O)N[C@@H](CCCCN)C(=O)N[C@@H](CCCCN)C(=O)N[C@@H]([C@@H](C)O)C(=O)N2)NC(=O)[C@H](CCCNC(=N)N)NC(=O)[C@H](CO)NC(=O)[C@H](CCCCN)NC(=O)[C@@H]2CCCN2C(=O)[C@H]([C@@H](C)CC)NC(=O)[C@H]([C@@H](C)O)NC(=O)[C@H](CC(=O)O)NC1=O` [[Lys16, 29;2-Nal27]ShK-amide], for which the IC50 in experiment [1] worked out at 10.1 nM; in experiment [2], 24.7 nM; in experiment [3] it was 13.1 nM.
The corresponding values for `CCCC[C@@H]1NC(=O)[C@H](CO)NC(=O)[C@H](Cc2c[nH]cn2)NC(=O)[C@H](CCCCN)NC(=O)[C@@H]2CSSC[C@@H]3NC(=O)[C@H]([C@@H](C)O)NC(=O)[C@H](C)NC(=O)[C@H](CCCCN)NC(=O)[C@H](CSSC[C@H](NC(=O)[C@H](CCCNC(=N)N)NC(=O)[C@H](CO)NC(=O)[C@H](CCCCN)NC(=O)[C@@H]4CCCN4C(=O)[C@H]([C@@H](C)CC)NC(=O)[C@H]([C@@H](C)O)NC(=O)[C@H](CC(=O)O)NC(=O)[C@H]([C@@H](C)CC)NC(=O)[C@@H](NC(=O)[C@H](CO)NC(=O)[C@@H](N)CCCNC(=N)N)CSSC[C@@H](C(N)=O)NC(=O)[C@H]([C@@H](C)O)NC(=O)CNC3=O)C(=O)N[C@@H]([C@@H](C)O)C(=O)N[C@@H](C)C(=O)N[C@@H](Cc3ccccc3)C(=O)N[C@@H](CCCCN)C(=O)N2)NC(=O)[C@H](Cc2ccccc2)NC(=O)[C@H](CO)NC(=O)[C@H](CC(C)C)NC(=O)[C@H](CCCNC(=N)N)NC(=O)[C@H](Cc2ccc(O)cc2)NC(=O)[C@H](CCCCN)NC1=O` [[Lys16, 29; Ala30,Nle21]ShK-amide] are 0.057 nM, 1.7 nM and 0.791 nM.
As for `CC[C@H](C)[C@@H]1NC(=O)[C@@H](NC(=O)[C@H](CO)NC(=O)[C@@H](N)CCCNC(=N)N)CSSC[C@@H](C(N)=O)NC(=O)[C@H]([C@@H](C)O)NC(=O)CNC(=O)[C@@H]2CSSC[C@@H]3NC(=O)[C@H](CCCCN)NC(=O)[C@H](Cc4ccccc4)NC(=O)[C@H](C)NC(=O)[C@H]([C@@H](C)O)NC(=O)[C@H](CSSC[C@H](NC(=O)[C@H](Cc4ccccc4)NC(=O)[C@H](CO)NC(=O)[C@H](CC(C)C)NC(=O)[C@H](CCCNC(=N)N)NC(=O)[C@H](Cc4ccc(O)cc4)NC(=O)[C@H](CCCCN)NC(=O)[C@H](CCSC)NC(=O)[C@H](CO)NC(=O)[C@H](Cc4c[nH]cn4)NC(=O)[C@H](CCCCN)NC3=O)C(=O)N[C@@H](CCCCN)C(=O)N[C@@H](C)C(=O)N[C@@H]([C@@H](C)O)C(=O)N2)NC(=O)[C@H](CCCNC(=N)N)NC(=O)[C@H](CO)NC(=O)[C@H](CCCCN)NC(=O)[C@@H]2CCCN2C(=O)[C@H]([C@@H](C)CC)NC(=O)[C@H]([C@@H](C)O)NC(=O)[C@H](CC(=O)O)NC1=O` [[Lys16, 29;A1a30]ShK-amide], the IC50 stood at 0.197 nM in experiment [1], 0.289 nM in experiment [2] and 0.186 nM in experiment [3].
